Experimental data taken from patent publication EP0702683B1, “06-SUBSTITUTED GUANINE DERIVATIVES, A PROCESS FOR THEIR PREPARATION AND THEIR USE IN TREATING TUMOUR CELLS” (Cancer Research Technology Limited, priority 1993, dated 1994).
Like-named read-outs stand apart in the source and are kept apart here.

Key:
[1] = Growth inhibition of V79 cells by inactivator alone; assay type: cell-based, Chinese hamster; conditions: chinese hamster, v79 cells, Figure 5
Description: In order to assess the effects on cell growth alone, Xeroderma pigmentosum cells and Chinese Hamster V79 cells were exposed to increasing concentrations (up to 600µM) of selected inactivators for 2h at 37°. In some cases, the inactivators were allowed to undergo hydrolysis at 37°C for 20 hours and then added to […] in order to assess the extent to which the decomposition products of the agents might inhibit cell growth. After 6 days the extent of cell growth was determined as described above.

bone marrow cells = experiment: Inactivator toxicity in bone marrow cells (GM-CFC colonies, inactivator alone); assay type: cell-based, human; conditions: 10uM, 5 patients A - E, Table 7, in words
Text: (§1) For the granulocyte/macrophage colony-forming cell (GM-CFC) assay primary human bone marrow samples were obtained from patients undergoing cardiothoracic surgery. […] The colonies represented precursor cells of the granulocyte/macrophage lineage (huGM-CFC). […]

[2] = as above; assay type: cell-based, human; conditions: human, bone marrow gm-cfc, inactivator 10uM, read-out: No. of colonies as % of control (ie no inactivator)
Text: as §1

Raji cells = experiment: Sensitization of Raji cells to temozolomide (XTT assay); assay type: cell-based, human
Description: Following a 2 hour incubation at 37°C, medium containing either increasing doses of BCNU, temozolomide or equivalent vehicle was added and the cells allowed to grow for 6 days. At this time XTT solution was added and the cells incubated for a further 4 hours at 37°C. The resulting red/orange formazan reaction product was quantified by measuring absorption at 450nm on a microtitre platereader.

human bone marrow cells = experiment: Sensitization of bone marrow cells to temozolomide (GM-CFC assay); assay type: cell-based; conditions: for sensitization effect on human bone marrow cells to temozolomide, compared with 0^6-benzylguanine: 10µM inactivator, Figure 14, in words
Text: For the granulocyte/macrophage colony-forming cell (GM-CFC) assay primary human bone marrow samples were obtained from patients undergoing cardiothoracic surgery. […] The colonies represented precursor cells of the granulocyte/macrophage lineage (huGM-CFC). Survival was expressed as a % of the number of colonies at zero dose temozolomide.

A375 tumour xenografts = experiment: Sensitization of A375 tumour xenografts to BCNU (tumour volume); assay type: in vivo, nude mice; conditions: 30 or 60 mg/kg i.p. 60 - 90 minutes prior to 10 - 25 mg/kg BCNU, Figs. 9-13, in words
Description: 0X6 OPT, England (OLAC mice). […] For this reason lower doses were administered.
A375M (human melanoma) cells were grown in DMEM containing 10% fetal bovine serum. The cells were prepared for in vivo inoculation by incubation with 0.01% trypsin.
Cells (10^6) in 100µl of PBS were injected subcutaneously into the right-hand flank of 8-10 week old nu/nu athymic mice. These cells were allowed to develop into a tumour for 3-4 weeks for passaging into experimental animals. Tumour blocks measuring 2mm x 2mm x 2mm were implanted subcutaneously on the right hand flank. These animals were ready for use in inactivator experiments in 7-10 days.
Xenograft tumour measurements were taken every 1-2 days by workers using digital calipers. Tumour volume was calculated using the formula (h x w x 1) π/6. The experimental animals were also weighed every 1-2 days. Measurements continued until tumours in the control animals reached the maximum allowable volume (i.e. 1cm x 1cm x 1cm).

Nc1nc(OCc2ccco2)c2nc[nH]c2n1 [B.4203, O^6-furfurylguanine]
selectivity ratio ([1]; read-out: growth inhibitory dose in V79 cells relative to the I50 dose): ≥ 100
MCC at 2 h ([1]; inactivator alone, up to 600µM, 2h at 37°, read-out: doses producing some growth inhibition of V79 cells): > 100 µM

Nc1nc(OCc2cccs2)c2nc[nH]c2n1 [B.4205, O^6-thenylguanine]
toxic effect of inactivator alone on bone marrow cells, compared with 0^6-benzylguanine (bone marrow cells): comparable to those for 0^6-benzylguanine
viability at 216 h, 10 µM ([2]; Patient A): 91%
viability at 216 h, 10 µM ([2]; Patient B): 46%
viability at 216 h, 10 µM ([2]; Patient C): 97%
viability at 216 h, 10 µM ([2]; Patient D): 118%
viability at 216 h, 10 µM ([2]; Patient E): 89%
sensitising Raji cells to the growth inhibitory effects of temozolomide, compared with BeG (Raji cells; 0.1uM inactivator, Figure 3, in words): more effective than BeG
dose response of sensitization of Raji cells to temozolomide (Raji cells; inactivator 0.1 to 5.0µM, Figures 3 and 4, in words): lack of dose response
sensitization effect on human bone marrow cells to temozolomide, compared with 0^6-benzylguanine (human bone marrow cells; patient D): no differential
sensitization effect on human bone marrow cells to temozolomide, compared with 0^6-benzylguanine (human bone marrow cells; patients C & E): smaller sensitization effect than 0^6-benzylguanine
sensitization of GM-CFCs in human bone marrow samples to the toxic effects of temozolomide (human bone marrow cells; three samples tested (BeG: all three; B.4205: two of these), Fig. 14, in words): little or no sensitization
reducing tumour volume / sensitising human melanoma xenografts to BCNU, compared with BeG (A375 tumour xenografts): comparable to 0^6-benzylguanine (BeG)
